Patent US20100016435A1, “HYBRID MOLECULES HAVING MIXED VITAMIN D RECEPTOR AGONISM AND HISTONE DEACETYLASE INHIBITORY PROPERTIES” (McGill University, priority 2006, published 2010)

Experiments:
SCC4 cells [1] = experiment: Protein acetylation in nuclear and cytoplasmic extracts, Western blot with anti-acetyllysine antibody; assay type: cell-based, human; details: 6 h
Description: (§1) FIG. 4 is an illustration of the HDAC inhibitory activity of 3 in the SCC4 cell line. FIG. 4A is an illustration of a western blot of nuclear and cytoplasmic extracts of SCC4 cells treated with vehicle (−), 1, or 3 alone or in combination, as indicated. The 55 kDa band corresponds to the molecular weight of tubulin. FIG. 4B illustrates a western blot probed with an antibody directed against acetylated histone H4 (AcH4) showing the effects of the treatments described in A on acetylation of histone H4. FIG. 4C illustrates western blots of the effects of treatments described in A on levels of total alpha-tubulin (left) and acetylated alpha-tubulin (right).
(§2) In preliminary experiments, TSA-inducible protein acetylation was analyzed in nuclear and cytoplasmic extracts of SCC4 cells treated for 6 h with 1, 3, or 1 and 3 and subsequently probed by Western blotting for protein acetylation using an anti-acetyllysine antibody. […] Effects of 3 on histone acetylation specifically, were confirmed by probing for acetylation of histone H4 (FIG. 4B). […] However, it was not clear whether this corresponded to enhanced expression or acetylation. […] This was confirmed by probing cytoplasmic fractions with an antibody that recognized α-tubulin (FIG. 4C). Calcitriol (1) had no effect on the acetylation of α-tubulin, and none of the treatments had any substantial effect on total α-tubulin expression (FIG. 4C).

histone H4 = experiment: Histone H4 acetylation, Western blot; assay type: cell-based, human; details: SCC4 cells, 6 h
Description: as §1, §2

α-tubulin = experiment: α-Tubulin acetylation in SCC4 cells, Western blot; assay type: cell-based, human; details: for levels of acetylated alpha-tubulin normalized for total alpha-tubulin: 3 15 nM, 36 or 39 10^−6 or 10^−7M, 6 h or 24 h, FIG. 6C
Description: as §1
FIG. 6 is a comparison of the HDAC inhibitory activities of 1, 3, 6, 36 or 39 as assessed by their effects on acetylation of alpha-tubulin. In A, SCC4 cells were incubated with vehicle or compound 1 (10^−6M), 3 (15 nM), 6 (10^−6M) and 36 (10^−6M), as indicated for 6 h and protein extracts were probed for total α-tubulin (Tub.) or acetylated α-tubulin (AcTub.) by Western blotting. Blots for acetylated alpha-tubulin and total alpha-tubulin are shown. In B, SCC4 cells were incubated with vehicle or compound 3 (15 nM), 6 (10^−6M) or 36 (10^−6M) as indicated for 6 h or 24 h and protein extracts were probed for acetylated α-tubulin (AcTub.) by Western blotting. In C, SCC4 cells were incubated with vehicle or compounds 3 (15 nM), 36 (10^−6 or 10^−7M) or 39 (10^−6 or 10^−7M) as indicated for 6 h or 24 h and protein extracts were probed for total α-tubulin (tub.) or acetylated α-tubulin (AcTub.) by Western blotting.
as §2
SCC4 cells were incubated with vehicle or compound as indicated for 6 h and cytoplasmic protein extracts were probed by Western blotting using a specific antibody for acetylated α-tubulin.

SCC25 cells [2] = experiment: Antiproliferative activity in SCC25 cells; assay type: cell-based; details: 1 at 1 nM or 100 nM; 3 15 nM; combination 3 with 100 nM 1; FIG. 7B
Description: FIG. 7 is an illustration of the antiproliferative activities of 1 and 3, individually or in combination, in SCC4 cells (A) or in SCC25 cells (B) at the concentrations indicated.

SCC4 cells [3] = experiment: Acidic β-galactosidase activity (marker of autophagy), X-Gal staining and 620 nm measurement; assay type: cell-based, human; details: for acidic β-galactosidase staining (X-Gal, pH 4.0), cytochemical: qualitative, FIG. 10A
Description: FIG. 10 is an illustration of the effects of 1, 3, 1+3 and 6 on the induction of acidic β-galactosidase activity, a marker of autophagy (A); FIG. 10 is an illustration of the effects 1, 3, 1+3 and 6 on the levels of β-galactosidase expression as obtained by measuring the indigo cleavage product of X-Gal at 620 nm (B).
Since it was observed that treatment with 1 could enhance cell death by autophagy (ref. 26), the effects of different treatments on the induction of acidic β-galactosidase activity, a marker of autophagy (FIG. 10A) was tested.

SCC4 cells [4] = experiment: Cell cycle distribution by FACS analysis; assay type: cell-based, human; details: 100 nM 1, or 100 nM 1 and 15 nM 3; 72 h
Method: FIG. 11 is an illustration of the results obtained by fluorescence-activated cell sorting (FACS) analysis on the distribution of SCC4 cells in the cell cycle following treatment with vehicle (−), 1, or 1 and 3 together at the concentrations indicated.
The combined effects of 1 and 3 on the distribution of SCC4 cells in the cell cycle were assessed by FACS analysis (FIG. 11). Cells were treated with vehicle, 100 nM 1, or a combination of 100 nM 1 and 15 nM 3 for 72 h, as indicated.

SCC4 cells [5] = experiment: Immunocytochemical and morphological analysis (mitotic catastrophe); assay type: cell-based, human
Description: FIG. 12 is an illustration of the immunocytochemical analysis of the effects of 1, 3, or 1 and 3 combined on SCC4 cells (A). […] Both phenotypes are characteristics of mitotic catastrophe. The lower panels (B) show cytoplasmic bridges between SCC4 cells treated with 1 and 3, consistent with the formation of the tubulin bridges seen above in A.
Assembly into microtubules is regulated by acetylation. […] Previous studies have shown that microtubule stabilizing agents can induce mitotic catastrophe (ref. 30). […] The formation of intercellular microtubular structures was consistent with observations in the light microscope of numerous intercellular bridges in cells treated with both 1 and 3 (FIG. 12B, arrows), but not in other treatment groups (not shown).

SCC4 cells [6] = details: cited from earlier work
SCC25 cells [7] = details: cited from earlier work
SCC4 cells [8] = experiment: Antiproliferative activity in SCC4 cells
Method: Tissue culture media was changed daily and fresh 1, 6 or vehicle were added.

human VDR = target: T1, human VDR (Homo sapiens, UniProt P11473); experiment: Reporter gene assay (VDRE-luciferase) in transiently transfected COS7 cells; assay type: cell-based
T1 construct: expressed in transfected cells; host or cells: COS7
T1 sequence (P11473 1-427): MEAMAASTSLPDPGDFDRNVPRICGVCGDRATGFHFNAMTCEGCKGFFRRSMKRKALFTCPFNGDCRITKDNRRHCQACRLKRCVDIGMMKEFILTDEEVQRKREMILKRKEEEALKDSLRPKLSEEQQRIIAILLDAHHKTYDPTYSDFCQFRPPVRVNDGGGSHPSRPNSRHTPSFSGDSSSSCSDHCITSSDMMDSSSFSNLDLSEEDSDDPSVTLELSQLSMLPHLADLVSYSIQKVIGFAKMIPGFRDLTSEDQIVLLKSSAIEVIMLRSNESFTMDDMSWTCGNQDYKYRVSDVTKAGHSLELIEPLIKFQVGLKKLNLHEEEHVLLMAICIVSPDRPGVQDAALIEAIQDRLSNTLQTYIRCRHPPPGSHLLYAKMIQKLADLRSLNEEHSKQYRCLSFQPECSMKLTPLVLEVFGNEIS
Method: FIG. 2 is an illustration of the vitamin D receptor agonist activity of 6 using a reporter gene assay in transiently transfected COS7 cells.
Hybrid molecule 6 was tested for calcitriol agonist activity using a reporter gene assay under standard conditions.^25,26 COS7 cells were transiently co-transfected with a plasmid expression vector for the human VDR, a plasmid vector expressing bacterial β-galactosidase from a constitutively active promoter (as an internal control for transfection efficiency), and a vector containing a luciferase reporter gene, under control of a previously described synthetic promoter composed of three high affinity VDREs (Vitamin D Response Elements) placed immediately upstream of a truncated promoter region from the herpes simplex virus thymidine kinase gene.^25 Cells were left overnight in the presence of DNA and transfection reagent (lipofectamine). The media were changed and cells were incubated in fresh media containing either vehicle (DMSO), 1 (100 nM), 3 (15 nM), 1 and 3 combined (100 nM/15 nM) or 6 (100 nM), and incubated a further 36 h.

HDAC = experiment: Colorimetric HDAC assay with nuclear extracts of SCC4 cells; assay type: biochemical, human
Method: FIG. 5 is a comparison of the capability of 3 and 6 (20 nM and 200 nM) in blocking deacetylation of a substrate that absorbs at 405 nm in its deacetylated form.
Hybrid molecule 6 was tested for HDAC inhibitory activity using a colorimetric assay as illustrated in FIG. 5. Nuclear extracts of SCC4 cells were incubated with vehicle, 3 or 6 in the presence of substrate for 60 min at 37° C. Following incubation with developer (1 min.), the absorbance was measured at 405 nm.

PC3 = experiment: Antiproliferative activity in PC3 prostate cancer cells; assay type: cell-based; details: PC3, data not shown
Du145 = experiment: Antiproliferative activity in Du145 prostate cancer cells; assay type: cell-based; details: Du145, data not shown
[9] = tested on: MCF-7 breast cancer cells; experiment: Cell viability, trypan blue dye exclusion assay; assay type: cell-based; details: 24 h; 6 at 10^−7 or 10^−6M versus 1 at 10^−6M or 1 and 3; FIG. 9A
Method: (§3) FIG. 9 is an illustration of the effects of 1, 3, 1+3, 6 and 36 administered at the concentrations indicated on cell viability in two models. The viability of MCF-7 breast cancer cells was monitored after 24 h of incubation using a trypan blue dye exclusion assay (A).
(§4) The effect of 1, 3, 1+3, 6 and 36 on cell viability was tested in two models. The viability of MCF-7 breast cancer cells was monitored after 24 h of incubation using a trypan blue dye exclusion assay (FIG. 9A). […] The effects of 100 nM 1, 15 nM 3 (TSA), 1 and 3 combined (100 nM/15 nM) and 100 nM 6 (hybrid molecule) on cell viability were tested by screening for induction of markers of apoptotic cell death. Annexin V staining was screened by FACS analysis as in Tavera-Mendoza et al.^26 While all treatments induced modest increases in annexin V staining, apoptosis could be excluded as the major cause of cell death (FIG. 9B).

SCC4 cells [10] = experiment: Annexin V staining by FACS (apoptotic cell death); assay type: cell-based, human; details: after pretreatment with UV light
Method: as §3, §4

C=C1/C(=C\C=C2/CCC[C@@]3(C)C2CCC3[C@H](C)CCCC(C)(C)O)C[C@@H](O)C[C@@H]1O (stereo partly drawn) [compound 1, 1α,25-Dihydroxyvitamin D3]
levels of a product of ~70 kDa (SCC4 cells [1]; cytoplasmic extracts): modestly but consistently enhanced
acetylation of low molecular weight nuclear proteins (SCC4 cells [1]; nuclear extracts): no effect
histone H4 acetylation (histone H4): little effect
acetylation of α-tubulin (α-tubulin; cytoplasmic fractions, FIG. 4C): no effect
SCC25 proliferation / sensitivity (SCC25 cells [2]): relatively more sensitive
acidic β-galactosidase staining (X-Gal, pH 4.0), cytochemical (SCC4 cells [3]): generally enhanced
proportion of cells in G1 (SCC4 cells [4]): augmented
proportion of cells in G2/M (SCC4 cells [4]): augmented
proportion of cells in S phase (SCC4 cells [4]): substantially diminished
cell morphology (SCC4 cells [5]; FIG. 12): did not differ from control cells
induction of mitotic catastrophe (SCC4 cells [5]; SCC4 cells): not 1 or 3 alone
resistance of SCC4 to antiproliferative effects (SCC4 cells [6]): resistant
cell cycle arrest (SCC25 cells [7]): G0/G1 arrest
SCC4 proliferation (SCC4 cells [8]; 1 nM or 100 nM 1, alone or with 15 nM 3, FIG. 7A): modest effects

C=C1/C(=C\C=C2/CCC[C@@]3(C)C2CCC3[C@H](C)/C=C/C=C/C(O)(CC)CC)C[C@@H](O)C[C@@H]1O (stereo partly shown) [compound 4, EB1089]
expression from the internal control plasmid (β-galactosidase) (human VDR; COS7 cells): modestly enhanced expression

CC(/C=C/C(=O)NO)=C\[C@@H](C)[C@H]1CC[C@H]2/C(=C/C=C3C[C@@H](O)C[C@H](O)C3)CCC[C@]12C [compound 6, (2E,4E,6R)-6-[(1R,3R,7E,17β)-1,3-dihydroxy-9,10secoestra-5,7-dien-17-yl]-N-hydroxy-4-methylhepta-2,4-dienamide]
reporter gene activity (calcitriol agonist activity) (human VDR; COS7, 36 h, 1 100 nM, 3 15 nM, 6 100 nM, not normalized): essentially identical to that of 1
tubulin acetylation (α-tubulin; 1 μM, 6 h, FIG. 6A): marked tubulin acetylation
tubulin acetylation (α-tubulin; after 24 h, FIG. 6B): remains elevated
fold less potent than TSA (3) (HDAC; HDAC inhibition): about 10 fold
inhibiting HDAC activity, compared with 3 (HDAC; equimolar concentrations (20 nM), 60 min at 37° C.): less effective
antiproliferative activity (PC3): similar
antiproliferative activity (Du145): similar
cell death (viability) [9]: markedly more cell death
annexin V staining versus 3, 1 or 1+3 (SCC4 cells [10]): substantially higher levels of apoptosis
levels of autophagy (SCC4 cells [3]; cytochemical and quantitative analysis): elevated levels of autophagy
increase in β-galactosidase expression versus 1 or 1+3 (SCC4 cells [3]; indigo cleavage product of X-Gal at 620 nm, FIG. 10B): ~30%
acidic β-galactosidase staining (X-Gal, pH 4.0), cytochemical (SCC4 cells [3]): higher percentage of cells that stained intensely
inhibition of SCC4 proliferation (SCC4 cells [8]; 96 h, media and compound changed daily, FIG. 8A): greater efficacy than 1

C[C@H](CCCC(=O)NO)[C@H]1CC[C@H]2/C(=C/C=C3C[C@@H](O)C[C@H](O)C3)CCC[C@]12C [compound 36]
levels of acetylated alpha-tubulin normalized for total alpha-tubulin (α-tubulin): observed only in cells treated with 3
tubulin acetylation (α-tubulin; 10^−6 M, 6 or 24 h, FIG. 6B): no effect

C[C@H](CCCCC(=O)NO)[C@H]1CC[C@H]2/C(=C/C=C3C[C@@H](O)C[C@H](O)C3)CCC[C@]12C [compound 39]
levels of acetylated alpha-tubulin normalized for total alpha-tubulin (α-tubulin): observed only in cells treated with 3
